From US11013696B2, “Lipids and lipid compositions for the delivery of active agents” (Novartis AG, priority 2013, dated 2021) come the findings set out here.

The first series is described as follows: Percent encapsulation of mRNA in lipid nanoparticles (Quant-iT Ribogreen). The class given is physicochemical. The following applies: Table 2; leptin mRNA in LNP with the cationic lipid. The protocol: All equipment and disposable supplies are certified free of RNase activity by the manufacturer or rendered RNase free by use of the RNaseZap reagent (LifeTechnologies). mRNA is encapsulated at a cationic lipid amine to mRNA phosphate (N:P) molar ratio of 4:1. Lipids (cationic lipid, DSPC, cholesterol and lipidated PEG or stealth lipid) are dissolved in ethanol. The molar ratios are 40:10:38:2, respectively. The mixture is sonicated briefly, then gently agitated for 5 minutes and then maintained at 37° C. until use. mRNA is exchanged into citrate buffer pH 5.8-6.0 by use of Amicon Ultra-15 centrifugal concentrators, and the final concentration is adjusted to 0.5 mg/ml and held at 37° C. until use. An equal volume of lipids in ethanol, mRNA in citrate buffer, and citrate buffer alone are drawn into disposable syringes. Tubing leading from syringes containing lipids and mRNA are attached to the T junction, and tubing leading from the syringe containing citrate buffer alone is paired with the tubing exiting the T-junction over a collection vessel containing a stir bar on an active stir plate. Syringes are placed in a syringe pump set to expel contents at a flow rate of 1 ml per minute.
The pump is activated, and the collected mRNA in lipid nanoparticles is transferred to SnakeSkin dialysis tubing (10,000 MWCO, Thermo Scientific). Material is dialyzed against RNAse- and pyrogen-free 1× phosphate buffered saline overnight at 4° C.
Percent encapsulation of mRNA in lipid nanoparticles is determined using the Quant-iT Ribogreen RNA Assay kit (Life Technologies). The LNP-mRNA suspension is assayed in buffer (mRNA outside the particle), and buffer plus Triton X-100 detergent (total mRNA). The difference calculated is the mRNA inside the particle. Prepare a 1000 ng/mL stock from the RNA provided in the kit and use this to generate a standard curve (0 ng/ml, 15.63-1000 ng/ml) in TE and TE+0.75% Triton X-100. Prepare LNP-mRNA samples in TE buffer and TE buffer +0.75% Triton X-100 with appropriate dilution so that reading is in the range of standard curve (400-2,000 fold). In a 384-well plate (Costar non-treated #3573) add 0.04 ml of standard (in duplicate) or sample (in triplicate) per well. Dilute Ribogreen reagent 240-fold in TE buffer and add 0.06 ml per well. Mix contents of wells and measure fluorescence (excitation=480 nm, emission=520 nm). Subtract background values (no RNA) from standard and test sample values and determine the concentrations of RNA in the samples using the standard curves. Determine the percent encapsulation of the sample by dividing the difference in concentrations between sample+triton and sample in buffer alone by the sample+triton concentration.
For the compound `CC/C=C\C/C=C\C/C=C\CCCCCCCC(=O)OCC(COC(=O)CCCCCCC/C=C\C/C=C\C/C=C\CC)OC(=O)CCC(CCCCCCCCCCCC)OC(=O)OCCCN(C)C` (centres unmarked) [Example 82, (9Z,9′Z,12Z,12′Z,15Z,15′Z)-2-((4-(((3-(dimethylamino)propoxy)carbonyl)oxy)hexadecanoyl)oxy)propane-1,3-diyl bis(octadeca-9,12,15-trienoate)], the “% encapsulation mRNA Leptin” value was determined as 81.9%. The same measure, in the same setting: in the case of `CCCCCCCCCCCCC(CCCOC(=O)CCCCC(COC(=O)CCCCCCC)COC(=O)CCCCCCC)OC(=O)C1(C)CCN(C)C1` (centres unmarked) [Example 132, 2-(5-((4-((1,3-dimethylpyrrolidine-3-carbonyl)oxy)hexadecyl)oxy)-5-oxopentyl)propane-1,3-diyl dioctanoate] it was 95.5%. The same measure, in the same setting: the value for `CCCCCCCCCCCCC(CCOC(=O)CCCCC(OCC(CCC)CCC)OCC(CCC)CCC)OC(=O)OCCCN(CC)CC` (centres unmarked) [Example 114, 3-(((3-(diethylamino)propoxy)carbonyl)oxy)pentadecyl 6,6-bis((2-propylpentyl)oxy)hexanoate] was 98.4%.

Consider `CCCCCCCCCCCCC(CCOC(=O)CCCCC(OCCCCCCCC)OCCCCCCCC)OC(=O)OCCCCN(CC)CC` (centres unmarked) [Example 109, 3-(((4-(diethylamino)butoxy)carbonyl)oxy)pentadecyl 6,6-bis(octyloxy)hexanoate], for which the “% encapsulation mRNA Leptin” value stood at 80.6%. Still for that read-out and setting: in the case of `CCCCCCCCCCCCC(CCCOC(=O)CCCCC(COC(=O)CCCCCCC)COC(=O)CCCCCCC)OC(=O)OC1CCN(C)CC1` (centres unmarked) [Example 137, 2-(5-((4-((((1-methylpiperidin-4-yl)oxy)carbonyl)oxy)hexadecyl)oxy)-5-oxopentyl)propane-1,3-diyl dioctanoate] it was 98.1%. For the compound `CCCCCCCCCCCCC(CCOC(=O)CCCCC(COC(=O)CCCCCCC)COC(=O)CCCCCCC)OC(=O)OCCCN1CCCCC1` (centres unmarked) [Example 141, 2-(5-oxo-5-((3-(((3-(piperidin-1-yl)propoxy)carbonyl)oxy)pentadecyl)oxy)pentyl)propane-1,3-diyl dioctanoate], the “% encapsulation mRNA Leptin” value worked out at 94.9%. On the same count and under the same terms, in the case of `CCCCCCCCCCCCC(CCOC(=O)CCCCC(OCCCCCCCC)OCCCCCCCC)OC(=O)CCCCN(CC)CC` (centres unmarked) [Example 123, 3-((5-(diethylamino)pentanoyl)oxy)pentadecyl 6,6-bis(octyloxy)hexanoate] it was 83.8%; in that of `CCCCCCCCCCCCC(CCOC(=O)CCCCC1OC(CCCCCCC)CC(CCCCCCC)O1)OC(=O)OCCCN(CC)CC` (centres unmarked) [Example 124, 3-(((3-(diethylamino)propoxy)carbonyl)oxy)pentadecyl 5-(4,6-diheptyl-1,3-dioxan-2-yl)pentanoate], 98.0%. The same measure, in the same setting: the value for `CCCCCCCCOC(CCCCC(=O)OCCC(CCCOC(=O)CCCCCCC)OC(=O)OCCCN(CC)CC)OCCCCCCCC` (centres unmarked) [Example 128, 6-((6,6-bis(octyloxy)hexanoyl)oxy)-4-(((3-(diethylamino)propoxy)carbonyl)oxy)hexyl octanoate] was 86.2%. The same measure, in the same setting: in the case of `CCCCCCCCCCCCC(CCCC(=O)OCCCC(OCCCCCCCC)OCCCCCCCC)OC(=O)OCCCN(CC)CC` (centres unmarked) [Example 129, 4,4-bis(octyloxy)butyl 5-(((3-(diethylamino)propoxy)carbonyl)oxy)heptadecanoate] it was 96.8%; in that of `CCCCCCCCCCCCC(CCCOC(=O)CCCCC(COC(=O)CCCCCCC)COC(=O)CCCCCCC)OC(=O)OCCCN(CC)CC` (centres unmarked) [Example 138, 2-(10-dodecyl-3-ethyl-8,15-dioxo-7,9,14-trioxa-3-azanonadecan-19-yl)propane-1,3-diyl dioctanoate], 92.9%. Turning to `CCCCC/C=C\C/C=C\CCCCCCCCC(CCOC(=O)CCCCC(OCCCCCCCC)OCCCCCCCC)OC(=O)OCCCN(CC)CC` (centres unmarked) [Example 127, (12Z,15Z)-3-(((3-(diethylamino)propoxy)carbonyl)oxy)henicosa-12,15-dien-1-yl 6,6-bis(octyloxy)hexanoate], the “% encapsulation mRNA Leptin” value is given as 96.7%.

The next series in a line: siRNA encapsulation in lipid nanoparticles (SYBR Gold). Type of series: physicochemical. The following applies: Table 2; FVII siRNA in LNP with the cationic lipid. The procedure: The lipid nanoparticles (LNPs) were formed by mixing equal volumes of lipids dissolved in alcohol with siRNA dissolved in a citrate buffer by an impinging jet process. The lipid solution contains a cationic lipid compound of the invention, a helper lipid (cholesterol), an optional neutral lipid (DSPC) and a PEG (PEG) lipid at a concentration of 8-16 mg/mL with a target of 12 mg/mL in an alcohol. The siRNA to total lipid ratio is approximately 0.05 (wt/wt). Where a LNP formulation contains four lipid components, the molar ratios of the lipids ranges from 20 to 70 mole percent for the cationic lipid with a target of 40-60, the mole percent of helper lipid ranges from 20 to 70 with a target of 30 to 50, the mole percent of neutral lipid ranges from 0-30, the mole percent of PEG lipid has a range from 1 to 6 with a target of 2 to 5. The concentration of siRNA solution ranges from 0.7 to 1.0 mg/mL with a target of 0.8 to 0.9 mg/mL in a sodium citrate: sodium chloride buffer pH 4-6, with a target of 4.5-5.5. The LNPs are formed by mixing equal volumes of lipid solution in ethanol with siRNA dissolved in a citrate buffer by an impinging jet process through a mixing device with ID ranging from 0.25 to 2.0 mm at a flow rate from 10 to 640 mL/min. The mixed LNP solution is held at room temperature for 0-24 hrs prior to a dilution step. The solution is then concentrated and diafiltered with suitable buffer by ultrafiltration or dialysis process using membranes with a MW cutoff from 30 to 500 KD. The final product is sterile filtered and stored at 4° C.
The lipid nanoparticles (LNPs) were formed by mixing equal volumes of lipids dissolved in alcohol with siRNA dissolved in a citrate buffer by an impinging jet process. The lipid solution contains a cationic lipid compound of the invention, a helper lipid (cholesterol), an optional neutral lipid (DSPC) and a stealth lipid (5010, S024, S027, or S031) at a concentration of 8-16 mg/mL with a target of 12 mg/mL in an alcohol. The siRNA to total lipid ratio is approximately 0.05 (wt/wt). Where a LNP formulation contains four lipid components, the molar ratios of the lipids ranges from 20 to 70 mole percent for the cationic lipid with a target of 40-60, the mole percent of helper lipid ranges from 20 to 70 with a target of 30 to 50, the mole percent of neutral lipid ranges from 0-30, the mole percent of PEG lipid has a range from 1 to 6 with a target of 2 to 5. The concentration of siRNA solution ranges from 0.7 to 1.0 mg/mL with a target of 0.8 to 0.9 mg/mL in a sodium citrate: sodium chloride buffer pH 4-6, with a target of 4.5-5.5. The LNPs are formed by mixing equal volumes of lipid solution in ethanol with siRNA dissolved in a citrate buffer by an impinging jet process through a mixing device with ID ranging from 0.25 to 2.0 mm at a flow rate from 10 to 640 mL/min. The mixed LNP solution is held at room temperature for 0-24 hrs prior to a dilution step. The solution is then concentrated and diafiltered with suitable buffer by ultrafiltration process using membranes with a MW cutoff from 30 to 500 KD. The final product is sterile filtered and stored at 4° C.
SYBR Gold flourescence reagent is used for the determination of siRNA encapsulation in the DLP's. DLP's with and without triton x-100 are used to determine the free siRNA and total siRNA amounts. DLP's samples with and without triton X-100 were excited at 485 nm and flourescence emission is measured at 530 nm. Encapsulation efficiency is calculated based on the following formula: Encapsulation efficiency:[([…])/(total siRNA concentration)]×100% Encapsulation Data
As to `CCCCCCCCCCCCC(CCOC(=O)CCC(COC(=O)CCCCCCC)COC(=O)CCCCCCC)OC(=O)OCCCN(CC)CC` (centres unmarked) [Example 4, 2-(10-dodecyl-3-ethyl-8,14-dioxo-7,9,13-trioxa-3-azahexadecan-16-yl)propane-1,3-diyl dioctanoate], the “% encapsulation siRNA FVII” value is on record as 88.6%. On to `CCCCC/C=C\C/C=C\CCCCCCCCC(CCOC(=O)CCCCCCC/C=C\C/C=C\CCCCC)OC(=O)CCN(C)C` (centres unmarked) [Example 49, (9Z,12Z)-(12Z,15Z)-3-((3-(dimethylamino)propanoyl)oxy)henicosa-12,15-dien-1-yl octadeca-9,12-dienoate], for which the “% encapsulation siRNA FVII” value turned out to be 88.4%.

As to `CCCCCCCCCCCCC(CCOC(=O)CCCCCCC(OCCCC)OCCCC)OC(=O)OCCCN(CC)CC` (centres unmarked) [Example 20, 3-(((3-(diethylamino)propoxy)carbonyl)oxy)pentadecyl 8,8-dibutoxyoctanoate], the “% encapsulation siRNA FVII” value amounted to 76.7%. On the same count and under the same terms, in the case of `CCCCCCCCCCCCC(CCOC(=O)CCCC(CCCCCCC)CCCCCCC)OC(=O)OCCCN(C)C` (centres unmarked) [Example 29, 3-(((3-(dimethylamino)propoxy)carbonyl)oxy)pentadecyl 5-heptyldodecanoate] it was 86.1%; in that of `CCCCC/C=C\C/C=C\CCCCCCCCC(CCOC(=O)CCCC(CCCCCCC)CCCCCCC)OC(=O)CCCN(C)C` (centres unmarked) [Example 51, (12Z,15Z)-3-((4-(dimethylamino)butanoyl)oxy)henicosa-12,15-dien-1-yl 5-heptyldodecanoate], 89.2%.
